The assay concerns the target T1, NBCe2 (Rattus norvegicus, UniProt Q6RI88).
T1 construct: gene Slc4a5
T1 sequence (Q6RI88 1-1112): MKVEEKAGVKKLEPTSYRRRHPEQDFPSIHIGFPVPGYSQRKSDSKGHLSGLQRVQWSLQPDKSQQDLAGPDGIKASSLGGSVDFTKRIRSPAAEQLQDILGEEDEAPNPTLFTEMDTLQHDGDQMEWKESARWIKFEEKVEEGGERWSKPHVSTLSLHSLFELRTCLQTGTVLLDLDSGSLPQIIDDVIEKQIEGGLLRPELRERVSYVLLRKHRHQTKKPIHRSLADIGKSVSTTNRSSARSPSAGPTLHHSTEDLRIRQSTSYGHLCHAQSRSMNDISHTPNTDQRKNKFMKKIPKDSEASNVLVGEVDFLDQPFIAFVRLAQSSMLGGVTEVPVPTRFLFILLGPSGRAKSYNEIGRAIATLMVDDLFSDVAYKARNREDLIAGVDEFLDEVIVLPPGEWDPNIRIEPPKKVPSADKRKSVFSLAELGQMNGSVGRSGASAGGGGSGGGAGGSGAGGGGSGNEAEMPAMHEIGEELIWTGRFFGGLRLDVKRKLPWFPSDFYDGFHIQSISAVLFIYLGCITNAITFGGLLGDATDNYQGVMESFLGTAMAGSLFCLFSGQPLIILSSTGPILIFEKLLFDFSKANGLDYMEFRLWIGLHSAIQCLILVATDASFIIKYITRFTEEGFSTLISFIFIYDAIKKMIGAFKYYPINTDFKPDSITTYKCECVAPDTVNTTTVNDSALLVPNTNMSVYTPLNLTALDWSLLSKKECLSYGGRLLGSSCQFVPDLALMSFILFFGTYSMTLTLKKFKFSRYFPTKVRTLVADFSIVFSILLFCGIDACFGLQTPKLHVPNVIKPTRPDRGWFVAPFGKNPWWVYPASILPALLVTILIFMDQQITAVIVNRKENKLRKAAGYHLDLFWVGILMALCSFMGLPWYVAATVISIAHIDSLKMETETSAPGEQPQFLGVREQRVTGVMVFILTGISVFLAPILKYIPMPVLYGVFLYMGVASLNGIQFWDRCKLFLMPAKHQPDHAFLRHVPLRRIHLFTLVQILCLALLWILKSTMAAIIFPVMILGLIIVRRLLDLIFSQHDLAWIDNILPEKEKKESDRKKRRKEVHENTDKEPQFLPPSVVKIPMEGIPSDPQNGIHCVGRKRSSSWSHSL
Nature of the assay: two-electrode voltage clamp of rat NBCe2 expressed in Xenopus laevis oocytes. Type of assay: cell-based. For orientation: Two-electrode voltage clamp holds a large cell at a set potential and records current.

Usually IC50 stands for the concentration that gives 50% inhibition. A high value points to weaker potency. Regarding `O=S(=O)(O)c1cc(N=C=S)ccc1/C=C/c1ccc(N=C=S)cc1S(=O)(=O)O` [DIDS], the 50% inhibitory concentration (IC50) was 4.5 ± 1.8 µM.

In turn, `Cc1ccc(CN(Cc2ccc(-c3ccccc3S(=O)(=O)NC#N)cc2)C(=O)c2ccccc2Cl)cc1` [S0859] gave a half-inhibitory concentration (IC50) of 10.7 ± 0.9 µM.

The values are drawn from paper PMC9422132, “Membrane transporters control cerebrospinal fluid formation independently of conventional osmosis to modulate intracranial pressure” (Fluids and Barriers of the CNS, 2022).
